From patent publication US8030300B2, “Ligands for nicotinic acetylcholine receptors, and methods of making and using them” (priority 2003, dated 2011)
Read-outs that look alike come from different tables or passages of the source.

Key:
Test in all cases: biochemical
Format in all cases: binding
[1] = target: T1, α2β4 nAChR subtype (Rattus norvegicus, UniProt P12389+P12392)
T1 construct: expressed in transfected cells
Excerpt: (§1) In order to assess the steric and hydropathic effects of the C-5 substituents of the pyridine on the binding affinity and subtype-selectivity at neuronal nicotinic acetylcholine receptors. […] The binding affinity ratios for a ligand, calculated from its affinities at an α subunit paired with either the β2 osubunit or the β4 subunit, represents a measure of the selectivity of that ligand with regard to the β subunits.

[2] = target: T2, α3β2 nAChR subtype (Rattus norvegicus, UniProt P04757+P12390)
T2 construct: expressed in transfected cells
Excerpt: as §1

[3] = target: T3, α4β2 nAChR subtype (Rattus norvegicus, UniProt P09483+P12390)
T3 construct: expressed in transfected cells
Excerpt: as §1

[4] = target: T4, α4β4 nAChR subtype (Rattus norvegicus, UniProt P09483+P12392)
T4 construct: expressed in transfected cells
Excerpt: as §1

[5] = target: T5, α3β4 nAChR subtype (Rattus norvegicus, UniProt P04757+P12392)
T5 construct: expressed in transfected cells
Excerpt: as §1

[6] = target: T6, α2β2 nAChR subtype (Rattus norvegicus, UniProt P12389+P12390)
T6 construct: expressed in transfected cells
Excerpt: as §1

[7] = target: T7, receptors in rat forebrain (mainly α4β2) (Rattus norvegicus, UniProt P09483+P12390); conditions: Ki α4β2*, Table 5; *Rat forebrain, mainly α4β2
T7 construct: from tissue; host or cells: rat forebrain homogenate
Excerpt: as §1
In Vitro Inhibition of ^3H-Epibatidin Binding
The high affinity binding site for ^3H-epibatidin is most certainly binding to the α4β2 subtype of nicotinic receptors. The identity of the low affinity site is still believed to be unknown.
Tissue preparation: Preparations may be performed at 0-4° C. unless otherwise indicated. […] The tissue suspension may then be centrifuged at 27,000×g for 10 min. The supernatant is then discarded and the pellet may then be washed three times by centrifugation at 27,000×g for 10 min in 20 mL fresh buffer, and the final pellet may be resuspended in fresh buffer (400 mL per g of original tissue) and used for binding assays.
Assay: Aliquots of 2.0 mL homogenate may be added to 0.100 mL of test solution and 0.100 mL of ^3H-epibatidin (0.3 nM, final concentration), mixed and incubated for 60 min at room temperature. […] The amount of radioactivity on the filters may be determined by conventional liquid scintillation counting. Specific binding is total binding minus non-specific binding.

[8] = Ki α2β4, Table 4, bivalent analogues
[9] = Ki α3β2, Table 4, bivalent analogues
[10] = Ki α4β2, Table 4, bivalent analogues
[11] = Ki α4β4, Table 4, bivalent analogues
[12] = Ki α3β4, Table 4, bivalent analogues
[13] = Ki α2β2, Table 4, bivalent analogues
[14] = Ki α2β4, Table 5, rat nAChR subtypes
[15] = Ki α3β2, Table 5, rat nAChR subtypes
[16] = Ki α4β2, Table 5, rat nAChR subtypes
[17] = Ki α4β4, Table 5, rat nAChR subtypes
[18] = Ki α3β4, Table 5, rat nAChR subtypes
[19] = Ki α2β2, Table 5, rat nAChR subtypes

T3 sequence (P12390 25-500): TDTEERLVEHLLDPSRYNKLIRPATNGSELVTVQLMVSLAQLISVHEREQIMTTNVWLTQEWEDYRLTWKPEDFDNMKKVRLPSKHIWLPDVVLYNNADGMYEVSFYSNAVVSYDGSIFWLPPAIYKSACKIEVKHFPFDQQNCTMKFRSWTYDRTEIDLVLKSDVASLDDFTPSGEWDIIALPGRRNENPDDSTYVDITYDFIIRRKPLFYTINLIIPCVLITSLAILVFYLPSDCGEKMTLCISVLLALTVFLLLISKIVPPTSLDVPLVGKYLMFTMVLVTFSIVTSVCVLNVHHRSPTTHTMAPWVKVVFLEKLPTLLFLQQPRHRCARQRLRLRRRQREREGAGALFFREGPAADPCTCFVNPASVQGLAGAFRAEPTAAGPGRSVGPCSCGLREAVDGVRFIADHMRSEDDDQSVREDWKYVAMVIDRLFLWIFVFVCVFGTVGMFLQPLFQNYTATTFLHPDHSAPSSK
T3 sequence (P09483 31-630): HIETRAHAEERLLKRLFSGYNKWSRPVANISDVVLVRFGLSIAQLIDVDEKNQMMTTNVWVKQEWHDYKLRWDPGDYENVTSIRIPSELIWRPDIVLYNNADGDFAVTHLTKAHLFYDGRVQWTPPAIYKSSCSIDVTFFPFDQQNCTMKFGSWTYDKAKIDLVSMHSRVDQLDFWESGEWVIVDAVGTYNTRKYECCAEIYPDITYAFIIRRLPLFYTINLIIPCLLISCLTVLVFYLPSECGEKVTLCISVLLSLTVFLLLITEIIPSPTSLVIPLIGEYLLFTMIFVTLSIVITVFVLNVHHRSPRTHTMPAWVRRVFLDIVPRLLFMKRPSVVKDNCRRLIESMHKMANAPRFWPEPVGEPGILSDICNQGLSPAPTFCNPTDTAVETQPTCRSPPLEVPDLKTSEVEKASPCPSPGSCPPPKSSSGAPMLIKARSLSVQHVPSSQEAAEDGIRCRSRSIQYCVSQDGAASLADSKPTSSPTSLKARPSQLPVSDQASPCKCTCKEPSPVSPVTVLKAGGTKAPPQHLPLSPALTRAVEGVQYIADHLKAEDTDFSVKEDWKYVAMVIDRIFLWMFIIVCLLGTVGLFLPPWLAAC
T6 sequence (P12390 25-500): as the sequence (P12390 25-500) above
T6 sequence (P12389 28-511): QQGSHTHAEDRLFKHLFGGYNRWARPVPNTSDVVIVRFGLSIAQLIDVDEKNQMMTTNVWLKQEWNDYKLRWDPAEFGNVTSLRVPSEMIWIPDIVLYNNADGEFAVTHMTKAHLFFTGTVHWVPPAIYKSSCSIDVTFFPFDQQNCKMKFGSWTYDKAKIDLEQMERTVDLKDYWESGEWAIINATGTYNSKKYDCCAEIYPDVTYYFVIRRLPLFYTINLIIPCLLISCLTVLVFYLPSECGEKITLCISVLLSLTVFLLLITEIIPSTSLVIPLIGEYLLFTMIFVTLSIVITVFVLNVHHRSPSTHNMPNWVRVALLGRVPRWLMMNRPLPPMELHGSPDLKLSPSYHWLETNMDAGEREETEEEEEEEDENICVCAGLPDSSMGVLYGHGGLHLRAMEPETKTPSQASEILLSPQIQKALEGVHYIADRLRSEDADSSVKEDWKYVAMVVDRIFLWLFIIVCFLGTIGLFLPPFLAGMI
T2 sequence (P12390 25-500): as the sequence (P12390 25-500) above
T2 sequence (P04757 26-499): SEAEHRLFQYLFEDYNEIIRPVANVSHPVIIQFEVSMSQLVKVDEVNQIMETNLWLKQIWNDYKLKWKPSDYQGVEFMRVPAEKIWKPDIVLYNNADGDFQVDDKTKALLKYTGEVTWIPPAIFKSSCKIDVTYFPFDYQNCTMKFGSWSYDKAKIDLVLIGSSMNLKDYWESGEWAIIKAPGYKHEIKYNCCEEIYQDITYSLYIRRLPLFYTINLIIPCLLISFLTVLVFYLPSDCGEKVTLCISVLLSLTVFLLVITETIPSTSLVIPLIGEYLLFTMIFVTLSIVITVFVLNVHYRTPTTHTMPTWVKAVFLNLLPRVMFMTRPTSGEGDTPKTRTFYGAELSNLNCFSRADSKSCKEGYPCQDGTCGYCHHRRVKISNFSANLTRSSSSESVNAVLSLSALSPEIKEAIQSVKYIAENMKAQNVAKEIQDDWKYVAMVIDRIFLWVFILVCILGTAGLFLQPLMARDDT
T7 sequence (P09483 31-630): as the sequence (P09483 31-630) above
T7 sequence (P12390 25-500): as the sequence (P12390 25-500) above
T5 sequence (P04757 26-499): as the sequence (P04757 26-499) above
T5 sequence (P12392 21-495): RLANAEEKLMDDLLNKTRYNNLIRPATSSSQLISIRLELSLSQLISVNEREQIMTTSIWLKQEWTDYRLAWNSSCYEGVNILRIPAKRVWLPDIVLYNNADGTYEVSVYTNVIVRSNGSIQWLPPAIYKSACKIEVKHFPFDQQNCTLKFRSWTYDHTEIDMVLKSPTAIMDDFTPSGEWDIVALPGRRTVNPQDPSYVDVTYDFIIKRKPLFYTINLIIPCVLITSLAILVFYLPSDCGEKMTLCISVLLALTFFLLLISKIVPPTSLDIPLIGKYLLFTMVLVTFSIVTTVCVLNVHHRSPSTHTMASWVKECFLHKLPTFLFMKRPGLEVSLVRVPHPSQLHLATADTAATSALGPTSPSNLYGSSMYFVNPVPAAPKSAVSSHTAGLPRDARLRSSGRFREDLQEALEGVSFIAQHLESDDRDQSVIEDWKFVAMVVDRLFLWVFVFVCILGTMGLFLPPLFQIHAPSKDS
T4 sequence (P12392 21-495): as above
T4 sequence (P09483 31-630): as the sequence (P09483 31-630) above
T1 sequence (P12389 28-511): as the sequence (P12389 28-511) above
T1 sequence (P12392 21-495): as the sequence (P12392 21-495) above

| Compound | Ki [1, 8] [nM] | Ki [2, 9] [nM] | Ki [3, 10] [nM] | Ki [4, 11] [nM] | Ki [5, 12] [nM] | Ki [6, 13] [nM] | Ki [1, 14] [nM] | Ki [2, 15] [nM] | Ki [3, 16] [nM] | Ki [4, 17] [nM] | Ki [5, 18] [nM] | Ki [6, 19] [nM] | other results |
| --- | --- | --- | --- | --- | --- | --- | --- | --- | --- | --- | --- | --- | --- |
| Clc1ccc(C2CC3CCC2N3CCCN2C3CCC2C(c2ccc(Cl)nc2)C3)cn1 (stereo not drawn) [Ligand 59b] | 15.7 | 5.2 | 8.7 | 23.3 | 62.9 | 6.1 |  |  |  |  |  |  |  |
| Clc1cc2c(cn1)C1(CC2)CC2CCC1N2 (stereo not drawn) [Ligand 58a] |  |  |  |  |  |  | 11600 | 16000 | 28000 | 10200 | 36700 | 12800 | Ki ([1]; Table 3, mean ± SEM of 3 (nicotine, 1: 3 to 6) independent measurements, read-out: Ki α2β4): 10700 nM; Ki ([2]; Table 3, mean ± SEM of 3 (nicotine, 1: 3 to 6) independent measurements, read-out: Ki α3β2): 19700 nM; Ki ([3]; Table 3, mean ± SEM of 3 (nicotine, 1: 3 to 6) independent measurements, read-out: Ki α4β2): 29200 nM; Ki ([4]; Table 3, mean ± SEM of 3 (nicotine, 1: 3 to 6) independent measurements, read-out: Ki α4β4): 10500 nM; Ki ([5]; Table 3, mean ± SEM of 3 (nicotine, 1: 3 to 6) independent measurements, read-out: Ki α3β4): 14900 nM; Ki ([6]; Table 3, mean ± SEM of 3 (nicotine, 1: 3 to 6) independent measurements, read-out: Ki α2β2): 12600 nM; Ki [7]: 54400 nM |
| Clc1ccc(C2CC3CCC2N3CCCCCCCCCCN2C3CCC2C(c2ccc(Cl)nc2)C3)cn1 (stereo not drawn) [Ligand 59d] | 24.2 | 6.8 | 10.3 | 18.7 | 67.7 | 5.8 |  |  |  |  |  |  |  |
| O=C1CC2CC(c3ccc(Cl)nc3)C1N2 (stereo not drawn) [Ligand 5, 2-exo-(2-Chloro-5-pyridyl)-7-azabicyclo[2.2.1]heptan-6-one] |  |  |  |  |  |  | 3240 | 1500 | 2020 | 3560 | 8870 | 1010 | Ki [7]: 1350 nM |
| OCCCCC#Cc1cncc(C2CC3CCC2N3)c1 (stereo not drawn) [Ligand 31, 2-exo-(5-(6-Hydroxy-1-hexynyl)-3-pyridyl)-7-azabicyclo[2.2.1]heptane] |  |  |  |  |  |  | 45.1 | 0.146 | 0.166 | 15.4 | 266 | 0.352 | Ki [7]: 0.215 nM |
| O[C@H]1[C@H](c2ccc(Cl)nc2)[C@H]2CC[C@@H]1N2 (relative stereo) [Ligand 3] |  |  |  |  |  |  |  |  |  |  |  |  | Ki ([1]; Ki α2β4): 15.3 nM; Ki ([2]; Ki α3β2): 7.3 nM; Ki ([3]; Ki α4β2): 2.9 nM; Ki ([4]; Ki α4β4): 11.2 nM; Ki ([5]; Ki α3β4): 39.1 nM; Ki ([6]; Ki α2β2): 2.5 nM |
| Clc1ccc(C2CC3CCC2N3CCN2C3CCC2C(c2ccc(Cl)nc2)C3)cn1 (stereo not drawn) [Ligand 59a] | 2.9 | 5.6 | 10.7 | 18 | 11.8 | 1.3 |  |  |  |  |  |  |  |
| OCCCCC#Cc1cncc(OC[C@@H]2CCN2)c1 [Ligand 26, 5-(6-Hydroxy-1-hexynyl)-3-(2(S)-azetidinylmethoxy)pyridine] |  |  |  |  |  |  | 269 | 0.53 | 0.09 | 74 | 4840 | 0.06 |  |
| O=C1CC2CC(c3ccc(Cl)nc3)C1N2 (racemic) [Ligand 5] |  |  |  |  |  |  |  |  |  |  |  |  | Ki ([1]; read-out: Ki α2β4): 3240 nM; Ki ([2]; read-out: Ki α3β2): 1500 nM; Ki ([3]; read-out: Ki α4β2): 2020 nM; Ki ([4]; read-out: Ki α4β4): 3560 nM; Ki ([5]; read-out: Ki α3β4): 8870 nM; Ki ([6]; read-out: Ki α2β2): 1010 nM |
| OC1CC2CC(c3ccc(Cl)nc3)C1N2 (racemic) [Ligand 9] |  |  |  |  |  |  |  |  |  |  |  |  | Ki ([1]; read-out: Ki α2β4): 5.85 nM; Ki ([2]; read-out: Ki α3β2): 1.36 nM; Ki ([3]; read-out: Ki α4β2): 0.92 nM; Ki ([4]; read-out: Ki α4β4): 5.57 nM; Ki ([5]; read-out: Ki α3β4): 27.3 nM; Ki ([6]; read-out: Ki α2β2): 1.53 nM |
| Clc1ccc(C2CC3CCC2N3CCCCCCN2C3CCC2C(c2ccc(Cl)nc2)C3)cn1 (stereo not drawn) [Ligand 59c] | 37.4 | 6.6 | 7.2 | 31.9 | 64.7 | 4.1 |  |  |  |  |  |  |  |
